In brackets after ≈: the same amount, converted by molar mass.
Tests used:
MDA-MB-231 [1] = test: Cytotoxicity against human MDA-MB-231 cells cultured as 3D cells assessed as cell death measured after 12 hrs relative to control; type: functional
MDA-MB-231 [2] = test: Cytotoxicity against human MDA-MB-231 cultured as 3D cells assessed as inhibition of cell growth measured after 12 hrs by CellTiter-Glo luciferase detection reagent based assay; type: functional; conditions: MDA-MB-231, 12 h
MDA-MB-231 [3] = test: Cytotoxicity against human MDA-MB-231 cells cultured as 2.5D cells assessed as cell death at 125 ug/ml measured after 12 hrs by tryphan blue based analysis relative to control; type: functional; conditions: dose 125 µg/ml
[4] = Selectivity ratio of IC50 for human MDA-MB-231 cultured as 3D cells to IC50 for human MDA-MB-231 cultured as 2D cells; type: functional
[5] = Therapeutic index, ratio of IC50 for cytotoxicity against human dermal fibroblast cultured as 2.5 D cells to IC50 for cytotoxicity against human MDA-MB-231 cultured as 2.5 D cells; type: toxicity, cell-based; conditions: read-out: TI
[6] = Therapeutic index, ratio of IC50 for cytotoxicity against human dermal fibroblast cultured as 2D cells to IC50 for cytotoxicity against human MDA-MB-231 cultured as 2D cells; type: toxicity, cell-based; conditions: human dermal fibroblasts versus MDA-MB-231 cells, 2D culture, read-out: TI
MDA-MB-231 [7] = test: Cytotoxicity against human MDA-MB-231 cells cultured as 3D cells assessed as decrease in live cell count at 125 ug/ml incubated for 12 hrs by tryphan blue based analysis (Rvb=20900x10^3No_unit); type: functional; conditions: dose 125 µg/ml
MDA-MB-231 [8] = test: Cytotoxicity against human MDA-MB-231 cells cultured as 2.5D cells assessed as decrease in live cell count at 125 ug/ml incubated for 12 hrs by tryphan blue based analysis (Rvb=22000x10^3No_unit); type: functional; conditions: dose 125 µg/ml
[9] = Therapeutic index, ratio of HC50 for Sheep RBC to IC50 for cytotoxicity against human MDA-MB-231 cultured as 2.5D cells; type: toxicity, cell-based; conditions: sheep (RBC) and human (MDA-MB-231), sheep red blood cells versus MDA-MB-231 cells, 2.5D culture; read-out: TI
MDA-MB-231 [10] = test: Cytotoxicity against human MDA-MB-231 cells cultured as 3D cells assessed as increase in dead cell count at 125 ug/ml incubated for 12 hrs by tryphan blue based analysis (Rvb=11000x10^3No_unit); type: functional; conditions: dose 125 µg/ml
[11] = Therapeutic index, ratio of HC50 for Sheep RBC to IC50 for cytotoxicity against human MDA-MB-231 cultured as 3D cells; type: toxicity, cell-based; conditions: sheep (RBC) and human (MDA-MB-231), sheep red blood cells versus MDA-MB-231 cells, 3D culture; read-out: TI
Jurkat = test: Antiproliferative activity against human Jurkat T cells assessed as inhibition of cell growth at 25 ug/ml relative to control; type: functional
[12] = Selectivity ratio of IC50 for human MDA-MB-231 cultured as 2.5D cells to IC50 for human MDA-MB-231 cultured as 2D cells; type: functional
MDA-MB-231 [13] = test: Cytotoxicity against human MDA-MB-231 cells cultured as 3D cells assessed as cell death at 125 ug/ml measured after 12 hrs by tryphan blue based analysis relative to control; type: functional; conditions: dose 125 µg/ml
MDA-MB-231 [14] = test: Cytotoxicity against human MDA-MB-231 cells cultured as 2.5D cells assessed as increase in dead cell count at 125 ug/ml incubated for 12 hrs by tryphan blue based analysis (Rvb=7700x10^3No_unit); type: functional; conditions: dose 125 µg/ml
[15] = Therapeutic index, ratio of HC50 for sheep RBC to IC50 for cytotoxicity against human MDA-MB-231 cultured as 2D cells; type: toxicity, cell-based; conditions: sheep (RBC) and human (MDA-MB-231), sheep red blood cells versus MDA-MB-231 cells, 2D culture; read-out: TI
[16] = Therapeutic index, ratio of IC50 for cytotoxicity against human dermal fibroblast cultured as 3D cells to IC50 for cytotoxicity against human MDA-MB-231 cultured as 3D cells; type: toxicity, cell-based; conditions: human dermal fibroblasts versus MDA-MB-231 cells, 3D culture, read-out: TI
MDA-MB-231 [17] = test: Cytotoxicity against human MDA-MB-231 cells cultured as 2.5D cells assessed as cell death measured after 12 hrs relative to control; type: functional
[18] = Cytotoxicity against human dermal fibroblast cultured as 2D cells assessed as reduction in cell viability measured after 12 hrs by CCK8 assay; type: toxicity, cell-based; conditions: human dermal fibroblasts (NHDF), 2D culture
MDA-MB-231 [19] = test: Cytotoxicity against human MDA-MB-231 cells cultured as 3D cells assessed as cell death at 125 ug/ml measured after 12 hrs by OCT/imaris based analysis relative to control; type: functional; conditions: dose 125 µg/ml
[20] = Hemolytic activity against Sheep RBC assessed as hemolysis by microplate reader analysis; type: toxicity, cell-based, Ovis aries, Erythrocyte; conditions: sheep red blood cells (erythrocytes)
MDA-MB-231 [21] = test: Cytotoxicity against human MDA-MB-231 cultured as 2D cells assessed as inhibition of cell growth measured after 12 hrs by CCK8 assay; type: functional, cell-based; conditions: MDA-MB-231, 12 h
[22] = Hemolytic activity in Sheep RBC assessed as hemolysis at 31 ug/ml by microplate reader analysis relative to control; type: toxicity, cell-based, Ovis aries, Erythrocyte; conditions: sheep red blood cells (erythrocytes), at 31 µg/mL, read-out: Activity
MDA-MB-231 [23] = test: Cytotoxicity against human MDA-MB-231 cells cultured as 2.5D cells assessed as cell death at 125 ug/ml measured after 12 hrs by OCT/imaris based analysis relative to control; type: functional; conditions: dose 125 µg/ml
MDA-MB-231 [24] = test: Cytotoxicity against human MDA-MB-231 cultured as 2.5D cells assessed as inhibition of cell growth measured after 12 hrs by CellTiter-Glo luciferase detection reagent based assay; type: functional; conditions: MDA-MB-231, 12 h
[25] = Growth inhibition of human dermal fibroblast cultured as 2D cells by tryphan blue based analysis; type: toxicity, cell-based; conditions: human dermal fibroblasts (NHDF), 2D culture
MDA-MB-231 [26] = test: Cytotoxicity against human MDA-MB-231 cells cultured as 2.5D cells assessed as cell death at 62.5 ug/ml measured after 12 hrs by tryphan blue based analysis relative to control; type: functional; conditions: dose 62.5 µg/ml
MDA-MB-231 [27] = test: Cytotoxicity against human MDA-MB-231 cells cultured as 3D cells assessed as cell death at 62.5 ug/ml measured after 12 hrs by OCT/imaris based analysis relative to control; type: functional; conditions: dose 62.5 µg/ml
MDA-MB-231 [28] = test: Cytotoxicity against human MDA-MB-231 cells cultured as 3D cells assessed as increase in dead cell count at 62.5 ug/ml incubated for 12 hrs by tryphan blue based analysis (Rvb=11000x10^3No_unit); type: functional; conditions: dose 62.5 µg/ml
MDA-MB-231 [29] = test: Cytotoxicity against human MDA-MB-231 cells cultured as 2.5D cells assessed as increase in dead cell count at 62.5 ug/ml incubated for 12 hrs by tryphan blue based analysis (Rvb=7700x10^3No_unit); type: functional; conditions: dose 62.5 µg/ml
MDA-MB-231 [30] = test: Cytotoxicity against human MDA-MB-231 cells cultured as 3D cells assessed as cell death at 62.5 ug/ml measured after 12 hrs by tryphan blue based analysis relative to control; type: functional; conditions: dose 62.5 µg/ml
MDA-MB-231 [31] = test: Cytotoxicity against human MDA-MB-231 cells cultured as 2.5D cells assessed as cell death at 62.5 ug/ml measured after 12 hrs by OCT/imaris based analysis relative to control; type: functional; conditions: dose 62.5 µg/ml
MDA-MB-231 [32] = test: Cytotoxicity against human MDA-MB-231 cells cultured as 3D cells assessed as decrease in live cell count at 62.5 ug/ml incubated for 12 hrs by tryphan blue based analysis (Rvb=20900x10^3No_unit); type: functional; conditions: dose 62.5 µg/ml
MDA-MB-231 [33] = test: Cytotoxicity against human MDA-MB-231 cells cultured as 2.5D cells assessed as decrease in live cell count at 62.5 ug/ml incubated for 12 hrs by tryphan blue based analysis (Rvb=22000x10^3No_unit); type: functional; conditions: dose 62.5 µg/ml

**Q.** Which results are given for `CCOC(=O)CCCCCCC/C=C\CCCCCCC(C)O[C@@H]1O[C@H](COC(C)=O)[C@@H](O)[C@H](O)[C@H]1O[C@@H]1O[C@H](COC(C)=O)[C@@H](O)[C@H](O)[C@H]1O` (stereo not given in full)?
**A.** Activity (MDA-MB-231 [1]): 88.2%; IC50 (MDA-MB-231 [2]): 130 µg/mL (≈ 177 µM); Activity (MDA-MB-231 [3]): 70%; Ratio IC50 [4]: 5; selectivity ratio [5]: 0.36; selectivity ratio [6]: 1.59; Activity (MDA-MB-231 [7]): 3667 10^3No_unit; Activity (MDA-MB-231 [8]): 5500 10^3No_unit; selectivity ratio [9]: 1.04; Activity (MDA-MB-231 [10]): 22917 10^3No_unit; selectivity ratio [11]: 0.96; inhibition at 25 µg/mL (Jurkat): 90%; Ratio IC50 [12]: 4.5; Activity (MDA-MB-231 [13]): 70%; Activity (MDA-MB-231 [14]): 16317 10^3No_unit; selectivity ratio [15]: 4.63; selectivity ratio [16]: 0.33; Activity (MDA-MB-231 [17]): 80.2%; IC50 at 12 h [18]: 43 µg/mL (≈ 58.5 µM); Activity (MDA-MB-231 [19]): 70%; HC50 [20]: 125 µg/mL; IC50 (MDA-MB-231 [21]): 27 µg/mL (≈ 36.7 µM); hemolysis at 31 ug/ml [22]: > 10%; Activity (MDA-MB-231 [23]): 70%; IC50 (MDA-MB-231 [24]): 120 µg/mL (≈ 163 µM)

**Q.** Which GI50 [25] does the source give for `COc1cccc2c1C(=O)c1c(O)c3c(c(O)c1C2=O)C[C@@](O)(C(=O)CO)C[C@@H]3O[C@H]1C[C@H](N)[C@H](O)[C@H](C)O1` [DOXORUBICIN] here?
**A.** Its GI50 is 30 µg/mL (≈ 55.2 µM).

**Q.** With `CC(=O)OC[C@H]1O[C@H]2OC(C)CCCCCC/C=C\CCCCCCCC(=O)O[C@H]3[C@H](O)[C@@H](O)[C@H](O[C@@H]2[C@@H](O)[C@@H]1O)O[C@@H]3COC(C)=O` (stereo not given in full) as the compound, how does the Activity (MDA-MB-231 [26]) read?
**A.** Its Activity is 70%.

**Q.** And the Activity (MDA-MB-231 [27])?
**A.** The Activity was 70%.

**Q.** What about the Activity (MDA-MB-231 [1]) of the same compound?
**A.** Its Activity is 89.3%.

**Q.** What about the IC50 (MDA-MB-231 [2]) of the same compound?
**A.** Its IC50 is 33 µg/mL (≈ 47.9 µM).

**Q.** And the Activity (MDA-MB-231 [28])?
**A.** The Activity was 17783 10^3No_unit.

**Q.** What about the Activity (MDA-MB-231 [29]) of the same compound?
**A.** Its Activity is 13933 10^3No_unit.

**Q.** What about the Activity (MDA-MB-231 [30]) of the same compound?
**A.** The Activity was 70%.

**Q.** What about the “Ratio IC50” value [4] of the same compound?
**A.** Its value is 2.5.

**Q.** What about the selectivity ratio [5] of the same compound?
**A.** The selectivity ratio was 0.82.

**Q.** And the selectivity ratio [6]?
**A.** Its selectivity ratio is 2.21.

**Q.** And the selectivity ratio [9]?
**A.** Its selectivity ratio is 3.29.

**Q.** And the Activity (MDA-MB-231 [31])?
**A.** The Activity was 70%.

**Q.** What about the selectivity ratio [11] of the same compound?
**A.** The selectivity ratio was 3.79.

**Q.** What about the “Ratio IC50” value [12] of the same compound?
**A.** The value was 3.

**Q.** What about the selectivity ratio [15] of the same compound?
**A.** The selectivity ratio was 8.93.

**Q.** What about the selectivity ratio [16] of the same compound?
**A.** Its selectivity ratio is 0.94.

**Q.** And the Activity (MDA-MB-231 [17])?
**A.** Its Activity is 88.4%.

**Q.** And the IC50 at 12 h [18]?
**A.** Its IC50 at 12 h is 31 µg/mL (≈ 45 µM).

**Q.** What about the Activity (MDA-MB-231 [32]) of the same compound?
**A.** The Activity was 3300 10^3No_unit.

**Q.** And the Activity (MDA-MB-231 [33])?
**A.** The Activity was 3117 10^3No_unit.

**Q.** What about the HC50 [20] of the same compound?
**A.** Its HC50 is 125 µg/mL.

**Q.** And the IC50 (MDA-MB-231 [21])?
**A.** Its IC50 is 14 µg/mL (≈ 20.3 µM).

**Q.** What about the hemolysis at 31 ug/ml [22] of the same compound?
**A.** Its hemolysis at 31 ug/ml is over 10%.

**Q.** And the IC50 (MDA-MB-231 [24])?
**A.** The IC50 was 38 µg/mL (≈ 55.2 µM).
